Experimental data as given in patent publication US7829080B2, “Stabilization method of reduced coenzyme Q10” (Kaneka Corporation, priority 2006, dated 2010).

Experiments:
[1] = Plasma total coenzyme Q after 14-day oral administration (Example 3); assay type: in vivo, Crj:CD (SD) rats; details: male and female rats, 600 mg/kg oral in corn oil once a day for 14 days, 24 hr after final administration; compared to the reduced coenzyme Q10 administration group
Method: A first group was used as a control group, and corn oil (3 ml/kg) was orally administered once a day for 14 days. […] At 24 hr after the final administration, blood samples were collected to give plasma samples. Using HPLC, the concentration of coenzyme Q in the obtained plasma was measured. The results are shown in the bar graph of FIG. 1.

[2] = Oral absorbability test (Example 4); assay type: in vivo, Crj:CD (SD) rats; details: male rats, 25 mg/ml soy bean oil solution at 4.0 ml/kg, 2 hr from administration
Method: Crj:CD (SD) rats (about 77-week-old, 10 male rats) were prepared. Reduced coenzyme Q10 was orally administered to 5 of them, and a mixture of reduced coenzyme Q10 and reduced coenzyme Q11 (containing 0.1% of reduced coenzyme Q11) was orally administered to the remaining 5 of them, each as a 25 mg/ml soy bean oil solution at a dose of 4.0 ml/kg. At 2 hr from the administration, blood was drawn and centrifuged to give plasma samples. Using HPLC, the concentration of coenzyme Q10 in the obtained plasma was measured. The results are shown in the bar graph of FIG. 2. As is clear from FIG. 2, the concentration of coenzyme Q10 in the plasma was about 3.4 μg/ml resulting from the administration of both reduced coenzyme Q10 and a mixture of reduced coenzyme Q10 and reduced coenzyme Q11.

Compound | concentration of total coenzyme Q in the plasma [1] | concentration of coenzyme Q10 in the plasma [2]
COc1c(O)c(C)c(C/C=C(\C)CC/C=C(\C)CC/C=C(\C)CC/C=C(\C)CC/C=C(\C)CC/C=C(\C)CC/C=C(\C)CC/C=C(\C)CCC=C(C)C)c(O)c1OC [reduced coenzyme Q9] | increased | 
COc1c(O)c(C)c(C/C=C(\C)CC/C=C(\C)CC/C=C(\C)CC/C=C(\C)CC/C=C(\C)CC/C=C(\C)CC/C=C(\C)CC/C=C(\C)CC/C=C(\C)CCC=C(C)C)c(O)c1OC [reduced coenzyme Q10] |  | about 3.4 μg/ml
